*1 amine or outer side, *2 acyl side, *3 side chain or, on linkers, in order; H or OH if unused. Where a SMILES comes first, the peptide text is derived from it. Bridges are numbered along the chain shown (N, C = ends). [ ]: non-standard residue; d: D form. X1 = CC(C)CCCCCCCCC[C@H](CC(=O)[*:1])O[*:2]
Legend:
Anthocoris nemoralis = experiment: Mortality by ingestion in Anthocoris nemoralis; conditions: observed 6 days; cultures 5×10^8 CFU/ml, surfactants and Tween 80 1/1000; water control 10
[1] = Surfactant activity of the lipopeptides (CMC, surface tension); type: physicochemical; conditions: at the CMC 0.0025%
Source text: After extracting the lipopeptides following the method of Cooper et al. 1981, a yield of 0.12 g/l and 0.10 g/l of culture was obtained for strains XT1 and XT2, respectively. The type strain produced 0.6 g/l. Lipopeptide production has not been described in the case of the Bacillus strain of the commercial preparation Botrybel. More specifically, in addition to surfactin, strain XT1 object of the present invention produces other surfactant lipopeptides such as fengycin and lichenysin.
The cellular dry weight (CDW) of strains XT1, XT2 and of type strain is 2.7 g/l, 2.5 g/l and 2.9 g/l, respectively. In the case of strain XT1, the critical micelle concentration (CMC) is 0.0025% (0.025 mg/ml); a surface tension of 29.7 mN/m was obtained with this value. In the case of the surfactin produced by B. subtilis and marketed by Sigma®, values of 26.7 mN/m at the same CMC were obtained. In other words, strain XT1 produces very active lipopeptides surfactants showing activity similar to the surfactin available on the market.

Row | surface tension [1] [mN/m] | Molecule | Mortality by ingestion (Anthocoris nemoralis)
1 |  | Tween 80 | 5 percentage of individuals
2 | 26.7 | CC(C)CCCCCCCCC[C@@H]1CC(=O)N[C@@H](CCC(=O)O)C(=O)N[C@@H](CC(C)C)C(=O)N[C@H](CC(C)C)C(=O)N[C@@H](C(C)C)C(=O)N[C@@H](CC(=O)O)C(=O)N[C@H](CC(C)C)C(=O)N[C@@H](CC(C)C)C(=O)O1 [surfactin] (EL[dL]VD[dL]L; linker N-C via X1) | 

From patent US20210076683A1, “USE OF BACILLUS METHYLOTROPHICUS AS A STIMULANT OF PLANT GROWTH AND BIOLOGICAL CONTROL MEANS, AND ISOLATES OF SAID SPECIES” (UNIVERSIDAD DE GRANADA, priority 2014, published 2021)
